Measured values: ChEMBL document CHEMBL1201862, “PubChem BioAssay data set” (2004)
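Test compounds were applied to cells in 96-well plates for 48 hours at 5 doses. At the GI50, growth is halved.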 Activity calls are given as the source filed them. Cut-off read from the data, not from the text of the source: active = GI50 up to about 1.1 µM and inactive = higher.

Tests used:
Assay in all cases: DTP human tumour cell line panel, 48 h
[1] = system: HCC 2998
[2] = system: SNB-19
[3] = system: OVCAR-3
[4] = system: HOP-62
[5] = system: CCRF-CEM
[6] = system: SK-MEL-5
[7] = system: TK-10
[8] = system: SF-539
[9] = system: HCT-15
[10] = system: HOP-92
[11] = system: UACC-257
[12] = system: IGROV-1
[13] = system: OVCAR-8
[14] = system: EKVX
[15] = system: OVCAR-4
[16] = system: SNB-75
[17] = system: RXF 393
[18] = system: A549
[19] = system: SK-MEL-28
[20] = system: DMS-114
[21] = system: COLO 205
[22] = system: M19-MEL
[23] = system: NCI-H460
[24] = system: SF-268
[25] = system: OVCAR-5
[26] = system: RPMI-8226
[27] = system: ACHN
[28] = system: SK-MEL-2
[29] = system: HT-29
[30] = system: SF-295
[31] = system: UO-31
[32] = system: HCT-116
[33] = system: DLD-1
[34] = system: KM-20L2
[35] = system: SW-620
[36] = system: MOLT-4
[37] = system: LXFL 529
[38] = system: DMS-273
[39] = system: K562
[40] = system: 786-0
[41] = system: U-251
[42] = system: UACC-62
[43] = system: SN12C
[44] = system: NCI-H522
[45] = system: KM12
[46] = system: Malme-3M
[47] = system: M14
[48] = system: HL-60
[49] = system: XF498
[50] = system: NCI-H23
[51] = system: SNB-78
[52] = system: NCI-H226
[53] = system: SR
[54] = system: A498
[55] = system: CAKI-1
[56] = system: LOX IMVI

## COC(=O)C1=C(C(=O)OC)C23C=CC=CC24C(C(=O)OC)=C(C(=O)OC)C4C1C3 (configuration not stated)
[1]
  GI50: > 100 µM (inactive)
[2]
  GI50: > 100 µM (inactive)
[3]
  GI50: > 100 µM (inactive)
[4]
  GI50: > 100 µM (inactive)
[5]
  GI50: 69.7 µM (inactive)
[6]
  GI50: > 100 µM (inactive)
[7]
  GI50: > 100 µM (inactive)
[8]
  GI50: > 100 µM (inactive)
[9]
  GI50: 59.8 µM
[10]
  GI50: > 100 µM (inactive)
[11]
  GI50: 50.2 µM (inactive)
[12]
  GI50: > 100 µM (inactive)
[13]
  GI50: > 100 µM (inactive)
[14]
  GI50: > 100 µM (inactive)
[15]
  GI50: > 100 µM (inactive)
[16]
  GI50: 0.743 µM (active)
[17]
  GI50: > 100 µM (inactive)
[18]
  GI50: > 100 µM (inactive)
[19]
  GI50: > 100 µM (inactive)
[20]
  GI50: 88.7 µM (inactive)
[21]
  GI50: > 100 µM (inactive)
[22]
  GI50: > 100 µM (inactive)
[23]
  GI50: > 100 µM (inactive)
[24]
  GI50: > 100 µM (inactive)
[25]
  GI50: > 100 µM (inactive)
[26]
  GI50: 51.2 µM (inactive)
[27]
  GI50: > 100 µM (inactive)
[28]
  GI50: > 100 µM (inactive)
[29]
  GI50: > 100 µM (inactive)
[30]
  GI50: > 100 µM (inactive)
[31]
  GI50: > 100 µM (inactive)
[32]
  GI50: 77.1 µM (inactive)
[33]
  GI50: > 100 µM (inactive)
[34]
  GI50: > 100 µM (inactive)
[35]
  GI50: > 100 µM (inactive)
[36]
  GI50: > 100 µM (inactive)
[37]
  GI50: 74.1 µM (inactive)
[38]
  GI50: 72.9 µM (inactive)
[39]
  GI50: 30.5 µM (inactive)
[40]
  GI50: > 100 µM (inactive)
[41]
  GI50: > 100 µM (inactive)
[42]
  GI50: 56.6 µM (inactive)
[43]
  GI50: > 100 µM (inactive)
[44]
  GI50: 32.7 µM (inactive)
[45]
  GI50: > 100 µM (inactive)
[46]
  GI50: > 100 µM (inactive)
[47]
  GI50: > 100 µM (inactive)
[48]
  GI50: 41.7 µM (inactive)
[49]
  GI50: > 100 µM (inactive)
[50]
  GI50: > 100 µM (inactive)
[51]
  GI50: 67.1 µM (inactive)

## CS(=O)(=O)NNS(=O)(=O)c1ccccc1
[1]
  GI50: > 100 µM (inactive)
[2]
  GI50: > 100 µM (inactive)
[52]
  GI50: > 100 µM (inactive)
[4]
  GI50: > 100 µM (inactive)
[5]
  GI50: > 100 µM (inactive)
[53]
  GI50: > 100 µM (inactive)
[6]
  GI50: > 100 µM (inactive)
[7]
  GI50: > 100 µM (inactive)
[8]
  GI50: > 100 µM (inactive)
[9]
  GI50: > 100 µM
[11]
  GI50: > 100 µM (inactive)
[12]
  GI50: > 100 µM (inactive)
[13]
  GI50: > 100 µM (inactive)
[14]
  GI50: > 100 µM (inactive)
[15]
  GI50: > 100 µM (inactive)
[16]
  GI50: > 100 µM (inactive)
[54]
  GI50: > 100 µM (inactive)
[17]
  GI50: > 100 µM (inactive)
[18]
  GI50: > 100 µM (inactive)
[20]
  GI50: > 100 µM (inactive)
[21]
  GI50: > 100 µM (inactive)
[55]
  GI50: > 100 µM (inactive)
[22]
  GI50: > 100 µM (inactive)
[23]
  GI50: > 100 µM (inactive)
[24]
  GI50: > 100 µM (inactive)
[26]
  GI50: > 100 µM (inactive)
[56]
  GI50: > 100 µM (inactive)
[27]
  GI50: > 100 µM (inactive)
[28]
  GI50: > 100 µM (inactive)
[29]
  GI50: > 100 µM (inactive)
[30]
  GI50: > 100 µM (inactive)
[31]
  GI50: > 100 µM (inactive)
[32]
  GI50: > 100 µM (inactive)
[33]
  GI50: > 100 µM (inactive)
[34]
  GI50: > 100 µM (inactive)
[35]
  GI50: > 100 µM (inactive)
[36]
  GI50: > 100 µM (inactive)
[37]
  GI50: > 100 µM (inactive)
[38]
  GI50: > 100 µM (inactive)
[39]
  GI50: > 100 µM (inactive)
[40]
  GI50: > 100 µM (inactive)
[41]
  GI50: > 100 µM (inactive)
[42]
  GI50: > 100 µM (inactive)
[43]
  GI50: > 100 µM (inactive)
[44]
  GI50: > 100 µM (inactive)
[45]
  GI50: > 100 µM (inactive)
[46]
  GI50: > 100 µM (inactive)
[47]
  GI50: > 100 µM (inactive)
[48]
  GI50: > 100 µM (inactive)
[49]
  GI50: > 100 µM (inactive)
[50]
  GI50: > 100 µM (inactive)
